Test results taken from ChEMBL document CHEMBL1146255, “Synthesis of bisdesmosidic kryptogenyl saponins using the 'random glycosylation' strategy and evaluation of their antitumor activity” (Bioorg Med Chem Lett, 2007).

How the values were obtained:
Details in all cases: Homo sapiens
[1] = system: HeLa; test: Antitumor activity against HeLa cells at 0.1 uM by MTT assay; assay type: functional
[2] = system: HeLa; test: Antitumor activity against HeLa cells at 10 uM by MTT assay; assay type: functional
[3] = system: HeLa; test: Antitumor activity against HeLa cells at 10 nM by MTT assay; assay type: functional
[4] = system: HeLa; test: Antitumor activity against HeLa cells at 1 uM by MTT assay; assay type: functional
[5] = system: HeLa; test: Antitumor activity against HeLa cells by MTT assay; assay type: functional, cell-based

SMILES: C[C@H](CCC(=O)[C@@H](C)[C@H]1C(=O)C[C@H]2[C@@H]3CC=C4C[C@@H](O[C@@H]5OC[C@H](O)[C@H](O)[C@H]5O)CC[C@]4(C)[C@H]3CC[C@]12C)CO[C@@H]1O[C@@H](C)[C@H](O)[C@@H](O)[C@H]1O
- inhibition at 0.1 µM [1]: 7.51%
- inhibition at 10 µM [2]: 10.3%
- inhibition at 0.01 µM [3]: 6.36%
- inhibition at 1 µM [4]: 9.25%
- IC50 [5]: > 10 µM

SMILES: C[C@H](CCC(=O)[C@@H](C)[C@H]1C(=O)C[C@H]2[C@@H]3CC=C4C[C@@H](O[C@@H]5O[C@H](CO)[C@@H](O)[C@H](O)[C@H]5O)CC[C@]4(C)[C@H]3CC[C@]12C)CO[C@@H]1OC[C@H](O)[C@H](O)[C@H]1O
- inhibition at 0.1 µM [1]: 1.05%
- inhibition at 10 µM [2]: 4.36%
- inhibition at 0.01 µM [3]: 0.87%
- inhibition at 1 µM [4]: 3.67%
- IC50 [5]: > 10 µM

SMILES: C[C@H](CCC(=O)[C@@H](C)[C@H]1C(=O)C[C@H]2[C@@H]3CC=C4C[C@@H](O[C@@H]5OC[C@@H](O)[C@H](O)[C@H]5O)CC[C@]4(C)[C@H]3CC[C@]12C)CO[C@@H]1OC[C@H](O)[C@H](O)[C@H]1O
- inhibition at 0.1 µM [1]: 5.45%
- inhibition at 10 µM [2]: 30.9%
- inhibition at 0.01 µM [3]: 0.68%
- inhibition at 1 µM [4]: 10.6%
- IC50 [5]: > 10 µM

SMILES: C[C@H](CCC(=O)[C@@H](C)[C@H]1C(=O)C[C@H]2[C@@H]3CC=C4C[C@@H](O[C@@H]5OC[C@H](O)[C@H](O)[C@H]5O)CC[C@]4(C)[C@H]3CC[C@]12C)CO[C@@H]1O[C@@H](CO)[C@H](O)[C@@H](O)[C@@H]1O
- inhibition at 0.1 µM [1]: 3.84%
- inhibition at 10 µM [2]: 9.71%
- inhibition at 0.01 µM [3]: 3.25%
- inhibition at 1 µM [4]: 4.79%
- IC50 [5]: > 10 µM

SMILES: C[C@H](CCC(=O)[C@@H](C)[C@H]1C(=O)C[C@H]2[C@@H]3CC=C4C[C@@H](O[C@@H]5OC[C@H](O)[C@H](O)[C@H]5O)CC[C@]4(C)[C@H]3CC[C@]12C)CO[C@@H]1OC[C@H](O)[C@H](O)[C@H]1O
- inhibition at 0.1 µM [1]: 1.64%
- inhibition at 10 µM [2]: 62%
- inhibition at 0.01 µM [3]: 0.26%
- inhibition at 1 µM [4]: 4.34%
- IC50 [5]: 4.25 µM

SMILES: C[C@H](CCC(=O)[C@@H](C)[C@H]1C(=O)C[C@H]2[C@@H]3CC=C4C[C@@H](O[C@@H]5O[C@H](CO)[C@@H](O)[C@H](O)[C@H]5O)CC[C@]4(C)[C@H]3CC[C@]12C)CO[C@@H]1OC[C@@H](O)[C@H](O)[C@H]1O
- inhibition at 0.1 µM [1]: 12.8%
- inhibition at 10 µM [2]: 24.8%
- inhibition at 0.01 µM [3]: 7.95%
- inhibition at 1 µM [4]: 14.5%
- IC50 [5]: > 10 µM

SMILES: C[C@H](CCC(=O)[C@@H](C)[C@H]1C(=O)C[C@H]2[C@@H]3CC=C4C[C@@H](O[C@@H]5O[C@H](CO)[C@@H](O)[C@H](O)[C@H]5O)CC[C@]4(C)[C@H]3CC[C@]12C)CO[C@@H]1O[C@H](CO)[C@@H](O)[C@H](O)[C@H]1O
- inhibition at 0.1 µM [1]: 1.78%
- inhibition at 10 µM [2]: 3.46%
- inhibition at 0.01 µM [3]: 0.46%
- inhibition at 1 µM [4]: 2.31%
- IC50 [5]: > 10 µM

SMILES: CC(=O)OC[C@H](C)CCC(=O)[C@@H](C)[C@H]1C(=O)C[C@H]2[C@@H]3CC=C4CC(OC(=O)c5ccccc5)CC[C@]4(C)[C@H]3CC[C@]12C (stereo not given in full)
- inhibition at 0.1 µM [1]: 12.1%
- inhibition at 10 µM [2]: 18.5%
- inhibition at 0.01 µM [3]: 8.33%
- inhibition at 1 µM [4]: 11%
- IC50 [5]: > 10 µM

SMILES: C[C@H](CCC(=O)[C@@H](C)[C@H]1C(=O)C[C@H]2[C@@H]3CC=C4C[C@@H](O[C@@H]5O[C@@H](C)[C@H](O)[C@@H](O)[C@H]5O)CC[C@]4(C)[C@H]3CC[C@]12C)CO[C@@H]1OC[C@@H](O)[C@H](O)[C@H]1O
- inhibition at 0.1 µM [1]: 20.1%
- inhibition at 10 µM [2]: 28.5%
- inhibition at 0.01 µM [3]: 13.6%
- inhibition at 1 µM [4]: 20.7%
- IC50 [5]: > 10 µM

SMILES: C[C@H](CCC(=O)[C@@H](C)[C@H]1C(=O)C[C@H]2[C@@H]3CC=C4C[C@@H](O[C@@H]5OC[C@@H](O)[C@H](O)[C@H]5O)CC[C@]4(C)[C@H]3CC[C@]12C)CO[C@@H]1OC[C@@H](O)[C@H](O)[C@H]1O
- inhibition at 0.1 µM [1]: 14.2%
- inhibition at 10 µM [2]: 17.6%
- inhibition at 0.01 µM [3]: 6%
- inhibition at 1 µM [4]: 16.3%
- IC50 [5]: > 10 µM

SMILES: C[C@H](CCC(=O)[C@@H](C)[C@H]1C(=O)C[C@H]2[C@@H]3CC=C4C[C@@H](O[C@@H]5O[C@@H](C)[C@H](O)[C@@H](O)[C@H]5O)CC[C@]4(C)[C@H]3CC[C@]12C)CO[C@@H]1O[C@@H](C)[C@H](O)[C@@H](O)[C@H]1O
- inhibition at 0.1 µM [1]: 14.3%
- inhibition at 10 µM [2]: 26.2%
- inhibition at 0.01 µM [3]: 7.19%
- inhibition at 1 µM [4]: 21.2%
- IC50 [5]: > 10 µM

SMILES: C[C@H](CCC(=O)[C@@H](C)[C@H]1C(=O)C[C@H]2[C@@H]3CC=C4C[C@@H](O[C@@H]5O[C@@H](C)[C@H](O)[C@@H](O)[C@H]5O)CC[C@]4(C)[C@H]3CC[C@]12C)CO[C@@H]1OC[C@H](O)[C@H](O)[C@H]1O
- inhibition at 0.1 µM [1]: 6.93%
- inhibition at 10 µM [2]: 60.1%
- inhibition at 0.01 µM [3]: 1.35%
- inhibition at 1 µM [4]: 6.34%
- IC50 [5]: 8.36 µM

SMILES: C[C@H](CCC(=O)[C@@H](C)[C@H]1C(=O)C[C@H]2[C@@H]3CC=C4C[C@@H](O[C@@H]5OC[C@H](O)[C@H](O)[C@H]5O)CC[C@]4(C)[C@H]3CC[C@]12C)CO[C@@H]1OC[C@@H](O)[C@H](O)[C@H]1O
- inhibition at 0.1 µM [1]: 1.79%
- inhibition at 10 µM [2]: 11.8%
- inhibition at 0.01 µM [3]: 0.98%
- inhibition at 1 µM [4]: 2.84%
- IC50 [5]: > 10 µM

SMILES: C[C@H](CCC(=O)[C@@H](C)[C@H]1C(=O)C[C@H]2[C@@H]3CC=C4C[C@@H](O[C@@H]5OC[C@@H](O)[C@H](O)[C@H]5O)CC[C@]4(C)[C@H]3CC[C@]12C)CO[C@@H]1O[C@H](CO)[C@@H](O)[C@H](O)[C@H]1O
- inhibition at 0.1 µM [1]: 19.3%
- inhibition at 10 µM [2]: 30.9%
- inhibition at 0.01 µM [3]: 17.5%
- inhibition at 1 µM [4]: 23%
- IC50 [5]: > 10 µM

SMILES: C[C@H](CCC(=O)[C@@H](C)[C@H]1C(=O)C[C@H]2[C@@H]3CC=C4C[C@@H](O[C@@H]5O[C@@H](C)[C@H](O)[C@@H](O)[C@H]5O)CC[C@]4(C)[C@H]3CC[C@]12C)CO[C@@H]1O[C@H](CO)[C@@H](O)[C@H](O)[C@H]1O
- inhibition at 0.1 µM [1]: 1.66%
- inhibition at 10 µM [2]: 15.1%
- inhibition at 0.01 µM [3]: 0.16%
- inhibition at 1 µM [4]: 1.67%
- IC50 [5]: > 10 µM

SMILES: C[C@H](CCC(=O)[C@@H](C)[C@H]1C(=O)C[C@H]2[C@@H]3CC=C4C[C@@H](O[C@@H]5O[C@H](CO)[C@@H](O)[C@H](O)[C@H]5O)CC[C@]4(C)[C@H]3CC[C@]12C)CO[C@@H]1O[C@@H](C)[C@H](O)[C@@H](O)[C@H]1O
- inhibition at 0.1 µM [1]: 7.16%
- inhibition at 10 µM [2]: 10.5%
- inhibition at 0.01 µM [3]: 3.42%
- inhibition at 1 µM [4]: 9.94%
- IC50 [5]: > 10 µM

SMILES: C[C@@H](CO)CCC(=O)[C@@H](C)[C@H]1C(=O)C[C@H]2[C@@H]3CC=C4C[C@@H](O)CC[C@]4(C)[C@H]3CC[C@]12C
- inhibition at 0.1 µM [1]: 13.8%
- inhibition at 10 µM [2]: 22.3%
- inhibition at 0.01 µM [3]: 9.49%
- inhibition at 1 µM [4]: 17.3%
- IC50 [5]: > 10 µM
